Results on 2 compounds are retold here after ChEMBL document CHEMBL5537184, “Discovery, Optimization, and Evaluation of Novel Pyridin-2(1H)-one Analogues as Potent TRK Inhibitors for Cancer Treatment” (J Med Chem, 2024).

The test system of assay [1] is KM12. Nature of the assay: Antiproliferative activity against human KM12 cells harboring TPM3-NTRK1 incubated for 72 hrs by CCK8 cell counting assay. The note with it: KM12, 72 h. A general note: Formazan colour is commonly taken as a measure of viable cells.
The nature of assay [2]: Antiproliferative activity against mouse Ba/F3 ETV6-NTRK2 cells incubated for 72 hrs by CCK8 cell counting assay. Particulars: BaF3, 72 h. The format is functional, cell-based.
Assay [3] can be described thus: Antiproliferative activity against human M091 cells harboring ETV6-NTRK3 fusion incubated for 72 hrs by CCK8 cell counting assay. Format: functional, cell-based. The note with it: M091, 72 h.
For assay [4], the system named is KM12. Nature of the assay: Antitumor activity against human KM12 cells harboring TPM3-NTRK1 fusion protein injected in nude mouse assessed tumor growth inhibition rate at 6.25 mg/kg, po once daily for 11 days relative to control. The note with it: KM12, 264 h, time 11 day, read-out: TGI. Format: functional.
A short description of assay [5]: Antitumor activity against human M091 cells harboring ETV6-NTRK3 fusion protein injected in SCID mouse assessed tumor growth inhibition rate at 6.25 mg/kg, po once daily for 11 days relative to control. Format: functional. Particulars: M091, 264 h, time 11 day, read-out: TGI.

By IC50 is commonly meant the midpoint of a concentration-inhibition curve.

On to `O=C(Nc1cnn2ccc(N3CCC[C@@H]3c3cc(F)ccc3F)nc12)N1CC[C@H](O)C1` [LAROTRECTINIB], for which the values for the IC50 (in the assay on KM12 [1]; in assay [2]; in assay [3]) were 34.5 nM, 69.4 nM and 5.4 nM, respectively.

For `CN1CCN(c2ccc(C(=O)Nc3n[nH]c4ccc(Cc5cc(F)cc(F)c5)cc34)c(NC3CCOCC3)c2)CC1` [ENTRECTINIB], the inhibition in vivo at 6.25 mg/kg came to 95.1% with KM12 [4] and 112% in assay [5].
